In PMC11031313 (Cell chemical biology, 2024):
pIC50, pKd: −log10 of the molar value.

Columns and labels:
Nef-eGFP fusion protein = Nef-eGFP fusion protein (UniProt P03406+Q96SW2); experiment: Nef-eGFP protein loss in CEM/Nef-eGFP cells by flow cytometry; format: cell-based, HIV-1; settings: 3 μM, 24 h
[1] = system: Nef-mediated CD4 downregulation; experiment: Rescue of cell-surface CD4 in Dox-induced CEM/Nef-eGFP T cells; format: cell-based, human; settings: 3 μM, 24 h
[2] = target: HIV-1 Nef (NL4-3 variant) (Human immunodeficiency virus type 1, UniProt Q90VU7); experiment: SPR binding to HIV-1 Nef; settings: for binding kinetics with Nef (in words): SPR, 90 s association, 180 s dissociation
[3] = target: Nef (NL4-3 variant) and CRBN thalidomide-binding domain (UniProt P03406+Q96SW2, A33V/T15A/T51N/V11I); experiment: PROTAC-mediated ternary complex formation in vitro; settings: 25 μM of each protein, 5-, 10- or 20-fold molar excess of PROTAC
Chain of Nef (NL4-3 variant) and CRBN thalidomide-binding domain (Q96SW2 317-425, other chains not shown): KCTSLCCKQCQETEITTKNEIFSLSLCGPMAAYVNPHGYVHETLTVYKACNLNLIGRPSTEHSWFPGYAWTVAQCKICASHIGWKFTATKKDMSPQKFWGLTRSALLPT

[4] = system: Nef-mediated MHC-I downregulation; experiment: Rescue of cell-surface MHC-I in Dox-induced CEM/Nef-eGFP T cells; format: cell-based, human; settings: 3 μM, 24 h
[5] = target: thalidomide-binding domain of CRBN (Homo sapiens, UniProt Q96SW2); experiment: SPR binding to CRBN thalidomide-binding domain; settings: 90 s association, 180 s dissociation
Chain of thalidomide-binding domain of CRBN (Q96SW2 317-425): as the sequence (Q96SW2 317-425, other chains not shown) above

uninfected PBMCs = experiment: Viability of uninfected PBMCs; format: cell-based, human; settings: 1 μM, 4 days
HIV-1NL4-3 [6] = experiment: HIV-1 replication in donor PBMCs; format: cell-based; settings: 1 μM, 4 days
HIV-1 Nef (SF2 variant) = HIV-1 Nef (SF2 variant) (Human immunodeficiency virus type 1 group M subtype B, UniProt P03407); format: cell-based; settings: 293T cells, PROTAC 10 μM, 24 h
[7] = target: M-group HIV-1 Nef variants; experiment: SPR binding to M-group HIV-1 Nef variants; settings: HIV-1 Nef proteins
SIV Nef mac239 = SIV Nef mac239 (Simian immunodeficiency virus, UniProt Q5QGG3); experiment: SPR binding to SIV Nef mac239
HIV-1NL4-3 [8] = experiment: HIV-1 infectivity assay in TZM-bl reporter cells; format: cell-based; settings: Human immunodeficiency virus 1, TZM-bl, 48 h, read-out: IC50, HIV-1 infectivity
TZM-bl cells = experiment: Viability of uninfected TZM-bl cells; format: cell-based, human
IKZF1 (Ikaros) = IKZF1 (Ikaros) (Homo sapiens, UniProt Q13422); experiment: IKZF1 protein level in CEM/Nef-eGFP T cells; format: cell-based; settings: CEM/Nef-eGFP cells after Dox induction
Chain of IKZF1 (Ikaros) (Q13422 whole entry): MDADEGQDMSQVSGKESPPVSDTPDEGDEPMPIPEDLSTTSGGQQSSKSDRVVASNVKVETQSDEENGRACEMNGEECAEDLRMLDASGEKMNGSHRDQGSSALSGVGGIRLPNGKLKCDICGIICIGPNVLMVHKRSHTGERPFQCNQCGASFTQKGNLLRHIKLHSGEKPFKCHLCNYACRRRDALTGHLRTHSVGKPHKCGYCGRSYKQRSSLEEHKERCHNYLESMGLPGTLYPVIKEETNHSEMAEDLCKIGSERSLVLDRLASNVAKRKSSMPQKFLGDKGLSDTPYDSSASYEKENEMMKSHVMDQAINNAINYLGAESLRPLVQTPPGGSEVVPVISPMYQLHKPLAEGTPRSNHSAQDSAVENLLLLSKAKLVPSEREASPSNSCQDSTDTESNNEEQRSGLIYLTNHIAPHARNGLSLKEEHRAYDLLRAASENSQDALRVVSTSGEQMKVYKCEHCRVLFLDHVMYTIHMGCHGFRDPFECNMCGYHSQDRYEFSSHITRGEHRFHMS

Chain of Nef-eGFP fusion protein (Q16531 whole entry, other chains not shown, the tested form may be a part): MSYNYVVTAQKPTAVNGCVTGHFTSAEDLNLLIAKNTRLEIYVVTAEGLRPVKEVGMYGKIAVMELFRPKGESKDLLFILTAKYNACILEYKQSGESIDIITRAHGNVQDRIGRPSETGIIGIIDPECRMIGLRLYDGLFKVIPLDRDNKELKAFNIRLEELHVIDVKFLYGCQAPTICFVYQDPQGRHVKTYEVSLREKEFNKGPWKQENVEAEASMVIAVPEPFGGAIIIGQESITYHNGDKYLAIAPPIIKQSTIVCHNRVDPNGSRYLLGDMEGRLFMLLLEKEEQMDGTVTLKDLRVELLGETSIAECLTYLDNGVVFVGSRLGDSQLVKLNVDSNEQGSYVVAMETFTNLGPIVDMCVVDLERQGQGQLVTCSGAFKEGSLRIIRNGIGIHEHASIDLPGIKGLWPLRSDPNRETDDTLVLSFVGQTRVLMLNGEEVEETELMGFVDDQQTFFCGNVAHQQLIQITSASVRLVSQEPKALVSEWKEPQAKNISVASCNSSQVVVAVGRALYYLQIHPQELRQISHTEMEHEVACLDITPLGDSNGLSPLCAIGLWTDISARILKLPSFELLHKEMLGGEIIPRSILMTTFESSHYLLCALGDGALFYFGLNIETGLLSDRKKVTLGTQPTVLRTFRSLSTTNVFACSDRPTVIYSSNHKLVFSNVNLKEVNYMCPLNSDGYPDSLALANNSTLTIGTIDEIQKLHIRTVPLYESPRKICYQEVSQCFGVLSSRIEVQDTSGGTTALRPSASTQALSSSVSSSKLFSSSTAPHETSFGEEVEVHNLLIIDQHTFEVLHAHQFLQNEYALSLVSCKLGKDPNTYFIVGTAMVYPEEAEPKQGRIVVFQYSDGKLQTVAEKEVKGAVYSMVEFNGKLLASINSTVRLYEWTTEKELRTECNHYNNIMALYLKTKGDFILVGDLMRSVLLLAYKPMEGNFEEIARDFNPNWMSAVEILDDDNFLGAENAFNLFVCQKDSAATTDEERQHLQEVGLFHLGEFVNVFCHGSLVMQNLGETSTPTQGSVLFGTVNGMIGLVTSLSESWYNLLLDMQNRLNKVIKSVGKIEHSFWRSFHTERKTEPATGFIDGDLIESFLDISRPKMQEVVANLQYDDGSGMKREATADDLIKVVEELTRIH
Chain of Nef-eGFP fusion protein (Q96SW2 whole entry, other chains not shown, the tested form may be a part): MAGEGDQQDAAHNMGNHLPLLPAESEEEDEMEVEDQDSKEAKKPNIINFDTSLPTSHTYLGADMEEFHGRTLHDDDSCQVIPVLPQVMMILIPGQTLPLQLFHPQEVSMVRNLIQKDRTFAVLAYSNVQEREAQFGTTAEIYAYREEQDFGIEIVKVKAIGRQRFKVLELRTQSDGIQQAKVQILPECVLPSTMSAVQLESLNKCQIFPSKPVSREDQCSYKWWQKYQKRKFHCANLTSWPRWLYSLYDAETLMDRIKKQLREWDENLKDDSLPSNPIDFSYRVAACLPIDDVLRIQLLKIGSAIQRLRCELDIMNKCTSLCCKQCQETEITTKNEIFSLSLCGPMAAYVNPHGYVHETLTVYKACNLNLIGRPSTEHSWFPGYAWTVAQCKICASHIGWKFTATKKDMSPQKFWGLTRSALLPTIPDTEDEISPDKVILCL

Compound | Nef-eGFP protein loss / Nef degradation (in words) (Nef-eGFP fusion protein) | cell-surface CD4 rescue (in words) [1] | binding kinetics with Nef (in words) [2] | ternary complex formation (in words) [3] | cell-surface MHC-I rescue (in words) [4] | induction of Nef ubiquitylation (in words) (HIV-1 Nef (SF2 variant)) | pKd [7] | pKd (SIV Nef mac239) | also measured
O=C(COc1cccc2c1CN(C1CCC(=O)NC1=O)C2=O)NCCOCCOCCOCc1ccc(-c2nn(-c3nc4cc(Cl)ccc4[nH]3)c(O)c2CCc2ccc(F)cc2)cc1 (centres unmarked) [FC-12988, N-(2-{2-[2-({4-[1-(5-chloro-1H-1,3-benzodiazol-2-yl)-4-[2-(4-fluorophenyl)ethyl]-5-hydroxy-1H-pyrazol-3-yl]phenyl}methoxy)ethoxy]ethoxy}ethyl)-2-{[2-(2,6-dioxopiperidin-3-yl)-1-oxo-2,3-dihydro-1H-isoindol-4-yl]oxy}acetamide] | effectively induced Nef degradation | restored CD4 and MHC-I expression | more rapid association and release compared to FC-13182 | induce ternary complexes of Nef with CRBN | restored CD4 and MHC-I expression |  |  |  | binding kinetics with CRBN thalidomide-binding domain (in words) [5]: associated more slowly than FC-13182 and showed a comparatively slow dissociation phase
O=C(COCCOc1ccc(CCc2c(-c3ccc(C(F)(F)F)cc3)nn(-c3nc4cc(Cl)ccc4[nH]3)c2O)cc1)NCCNc1cccc2c1C(=O)N(C1CCC(=O)NC1=O)C2=O (centres unmarked) [FC-13182, 2-[2-(4-{2-[1-(5-chloro-1H-1,3-benzodiazol-2-yl)-5-hydroxy-3-[4-(trifluoromethyl)phenyl]-1H-pyrazol-4-yl]ethyl}phenoxy)ethoxy]-N-(2-{[2-(2,6-dioxopiperidin-3-yl)-1,3-dioxo-2,3-dihydro-1H-isoindol-4-yl]amino}ethyl)acetamide] | effectively induced Nef degradation | restored CD4 and MHC-I expression |  |  | restored CD4 and MHC-I expression |  |  |  | 
O=C(COCCOCCOCCCc1ccc(-c2nn(-c3nc4cc(Cl)ccc4[nH]3)c(O)c2CCc2ccc(F)cc2)cc1)NCCNc1cccc2c1C(=O)N(C1CCC(=O)NC1=O)C2=O (centres unmarked) [FC-13818, 2-{2-[2-(3-{4-[1-(5-chloro-1H-1,3-benzodiazol-2-yl)-4-[2-(4-fluorophenyl)ethyl]-5-hydroxy-1H-pyrazol-3-yl]phenyl}propoxy)ethoxy]ethoxy}-N-(2-{[2-(2,6-dioxopiperidin-3-yl)-1,3-dioxo-2,3-dihydro-1H-isoindol-4-yl]amino}ethyl)acetamide] |  |  |  | induce ternary complexes of Nef with CRBN |  |  |  |  | reduction of viability (uninfected PBMCs): 20%; HIV-1 replication (in words) (HIV-1NL4-3 [6]): reduced HIV-1 replication below the level of the ΔNef mutant
CN(CCNC(=O)COCCOc1ccc(CCc2c(-c3ccc(C(F)(F)F)cc3)nn(-c3nc4cc(Cl)ccc4[nH]3)c2O)cc1)c1cccc2c1C(=O)N(C1CCC(=O)NC1=O)C2=O (centres unmarked) [FC-13887, 2-[2-(4-{2-[1-(5-chloro-1H-1,3-benzodiazol-2-yl)-5-hydroxy-3-[4-(trifluoromethyl)phenyl]-1H-pyrazol-4-yl]ethyl}phenoxy)ethoxy]-N-(2-{[2-(2,6-dioxopiperidin-3-yl)-1,3-dioxo-2,3-dihydro-1H-isoindol-4-yl](methyl)amino}ethyl)acetamide] |  |  |  | induce ternary complexes of Nef with CRBN |  | active |  |  | z-score of normalized BRET ratio (Nef ubiquitylation) (HIV-1 Nef (SF2 variant)): 1.3
O=C1CCC(N2Cc3c(OCC(=O)N4CCC(c5nn(-c6nc7cc(Cl)ccc7[nH]6)c(O)c5CCc5ccc(F)cc5)CC4)cccc3C2=O)C(=O)N1 (centres unmarked) [FC-14367, 3-[4-(2-{4-[1-(5-chloro-1H-1,3-benzodiazol-2-yl)-4-[2-(4-fluorophenyl)ethyl]-5-hydroxy-1H-pyrazol-3-yl]piperidin-1-yl}-2-oxoethoxy)-1-oxo-2,3-dihydro-1H-isoindol-2-yl]piperidine-2,6-dione] |  |  |  |  |  |  | > 6.00 | > 6.00 | 
O=C(COc1ccc(CCc2c(-c3ccc(C(F)(F)F)cc3)nn(-c3nc4cc(Cl)ccc4[nH]3)c2O)cc1)NCCNc1cccc2c1C(=O)N(C1CCC(=O)NC1=O)C2=O (centres unmarked) [FC-14369, 2-(4-{2-[1-(5-chloro-1H-1,3-benzodiazol-2-yl)-5-hydroxy-3-[4-(trifluoromethyl)phenyl]-1H-pyrazol-4-yl]ethyl}phenoxy)-N-(2-{[2-(2,6-dioxopiperidin-3-yl)-1,3-dioxo-2,3-dihydro-1H-isoindol-4-yl]amino}ethyl)acetamide] | parallel loss in Nef expression |  | delayed dissociation |  |  | active | > 6.00 | > 6.00 | pIC50 (HIV-1NL4-3 [8]): ~6.60; cytotoxicity (in words) (TZM-bl cells): without cytotoxicity; pKd [2]: 8.19; effect on the protein level of IKZF1 (IKZF1 (Ikaros)): reduced the expression of IKZF1
